The record followed here is PubChem BioAssay AID1500 (NMMLSC, 2009).

The source made the active and inactive calls.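 The calls were made as follows: active = compounds cutting labeled signal peptide binding to staph cells by half or more; inactive = the rest.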

The test system of this test is S. aureus cells, FITC-AIP binding, flow cytometry. Put plainly: displacement of labeled AIP from bacterial receptors – strains RN6390, NM300, flow cytometry, mechanism study for S. aureus quorum sensing inhibitors, late-stage follow-up (AID 1500). The note with it: stronger effect = higher value. In general terms: In flow cytometry, cells or beads pass a laser one at a time.

For the compound `CCc1oc2ccccc2c1C(=O)c1cc(Br)c(O)c(Br)c1`, the inhibition (in general, the percentage by which the read-out fell short of the control) is 65% (at 6 µM) and 69% (strain RN6390, at 6 µM). As for `Cc1c(Cl)cccc1Nc1ccccc1C(=O)O`, the inhibition was 67% (at 30 µM) and 60% (strain RN6390, at 30 µM).

`CC1CCCN(C(C(=O)Nc2ccc3c(c2)OCCO3)c2ccccc2)C1` (stereo unspecified): where the note is “at 12 µM”, the inhibition is 26% (inactive).

In the case of `CC1CCCN(C(C(=O)Nc2ccc3c(c2)OCO3)c2ccccc2)C1` (stereo unspecified), the inhibition (at 12 µM) was 20% (inactive).
